Drawing on PubChem BioAssay AID248 (DTP/NCI, 2004), this text covers T/C for nine compounds.

“And” between values parts separate entries of the source, which are not always exact repeats. Identical values can stand only once. Toxic doses and inconclusive results are not listed.

For this assay, the system named is L1210 leukemia ip in BDF1 mice, survival T/C. Kind of assay: NCI In Vivo Anticancer Drug Screen. Data for tumor model L1210 Leukemia (intraperitoneal) in B6D2F1 (BDF1) mice. As to conditions: endpoint: mean survival time, higher = longer survival. The essentials:
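Each compound was tested against a transplantable tumor grown in mice. The endpoint was survival, with treated animals benchmarked against vehicle controls as a simple ratio.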

The mark [1] stands for this setting: dose: 100.0 mg/kg/injection, schedule: Q04DX003 (ip), vehicle: Klucel (hydroxypropylcellulose) (HPC).
The mark [2] stands for this setting: dose: 200.0 mg/kg/injection, schedule: Q04DX003 (ip), vehicle: Klucel (hydroxypropylcellulose) (HPC).
Setting [3] is: dose: 400.0 mg/kg/injection, schedule: Q04DX003 (ip), vehicle: Klucel (hydroxypropylcellulose) (HPC).

As for `COC12C(COC(=O)NCCO)C3=C(C(=O)C(C)=C(N)C3=O)N1CC1NC12` (centres undefined), the T/C by setting is: (dose: 5.0 mg/kg/injection, schedule: Q01DX009 (ip), vehicle: saline) 121 % of control; (dose: 10.0 mg/kg/injection, schedule: Q01DX009 (ip), vehicle: saline) 122 % of control; (dose: 12.0 mg/kg/injection, schedule: Q04DX003 (ip), vehicle: Klucel (hydroxypropylcellulose) (HPC)) 94 % of control; (dose: 19.0 mg/kg/injection, schedule: Q04DX003 (ip), vehicle: Klucel (hydroxypropylcellulose) (HPC)) 111 % of control; (dose: 28.0 mg/kg/injection, schedule: Q04DX003 (ip), vehicle: Klucel (hydroxypropylcellulose) (HPC)) 111 % of control; (dose: 40.0 mg/kg/injection, schedule: Q01DX009 (ip), vehicle: saline) 102 % of control. Also, the T/C reads like this: (dose: 43.0 mg/kg/injection, schedule: Q01DX001 (ip), vehicle: Klucel (hydroxypropylcellulose) (HPC)) 121 % of control; (dose: 43.0 mg/kg/injection, schedule: Q01DX009 (ip), vehicle: Klucel (hydroxypropylcellulose) (HPC)) 109 % of control; (dose: 43.0 mg/kg/injection, schedule: Q04DX003 (ip), vehicle: Klucel (hydroxypropylcellulose) (HPC)) 115 % of control; (dose: 100.0 mg/kg/injection, schedule: Q01DX003 (ip), vehicle: Klucel (hydroxypropylcellulose) (HPC)) 103 % of control; (dose: 150.0 mg/kg/injection, schedule: Q01DX001 (ip), vehicle: Klucel (hydroxypropylcellulose) (HPC)) 102 % of control; (dose: 150.0 mg/kg/injection, schedule: Q01DX003 (ip), vehicle: Klucel (hydroxypropylcellulose) (HPC)) 94 % of control. In addition, the T/C reads like this: (dose: 200.0 mg/kg/injection, schedule: Q04DX002 (ip), vehicle: Klucel (hydroxypropylcellulose) (HPC)) 91 % of control; (dose: 225.0 mg/kg/injection, schedule: Q01DX001 (ip), vehicle: Klucel (hydroxypropylcellulose) (HPC)) 91 % of control; (dose: 225.0 mg/kg/injection, schedule: Q01DX003 (ip), vehicle: Klucel (hydroxypropylcellulose) (HPC)) 95 % of control; (dose: 400.0 mg/kg/injection, schedule: Q04DX002 (ip), vehicle: Klucel (hydroxypropylcellulose) (HPC)) 91 % of control.

For `CN(C)CCNS(C)(=O)=O`, the T/C was 105 % of control (dose: 100.0 mg/kg/injection, schedule: Q01DX009 (ip), vehicle: saline); 98 % of control (dose: 100.0 mg/kg/injection, schedule: Q04DX003 (ip), vehicle: saline); 105 % of control (dose: 200.0 mg/kg/injection, schedule: Q01DX009 (ip), vehicle: saline); 100 % of control (dose: 200.0 mg/kg/injection, schedule: Q04DX003 (ip), vehicle: saline); 109 % of control (dose: 400.0 mg/kg/injection, schedule: Q01DX009 (ip), vehicle: saline); 100 % of control (dose: 400.0 mg/kg/injection, schedule: Q04DX003 (ip), vehicle: saline).

With `O=c1[nH]c(=S)[nH]c2nccnc12`, the T/C was 108 % of control (dose: 16.0 mg/kg/injection, schedule: Q01DX Z (ip), vehicle: methylcellulose (MC)); 103 % of control (dose: 31.0 mg/kg/injection, schedule: Q01DX Z (ip), vehicle: methylcellulose (MC)); 105 % of control (dose: 62.0 mg/kg/injection, schedule: Q01DX Z (ip), vehicle: methylcellulose (MC)); 97 % of control and 106 % of control (dose: 125.0 mg/kg/injection, schedule: Q01DX Z (ip), vehicle: methylcellulose (MC)); 97 % of control (dose: 250.0 mg/kg/injection, schedule: Q01DX Z (ip), vehicle: methylcellulose (MC)); 106 % of control (dose: 500.0 mg/kg/injection, schedule: Q01DX Z (ip), vehicle: methylcellulose (MC)).

On to `C=CCN(CC=C)C(=S)Nc1cccc(Cl)c1`, for which the T/C is, setting by setting: (dose: 100.0 mg/kg/injection, schedule: Q01DX001 (ip), vehicle: other) 103 % of control; (dose: 200.0 mg/kg/injection, schedule: Q01DX001 (ip), vehicle: other) 100 % of control; (dose: 400.0 mg/kg/injection, schedule: Q01DX001 (ip), vehicle: other) 100 % of control.

On to `CCCCCCOC(=O)C(N)Cc1ccc(O)c(N(CCCl)CCCl)c1` (centres undefined), for which the T/C is, setting by setting: (dose: 0.01 mg/kg/injection, schedule: Q01DX009 (ip), vehicle: saline) 123 % of control; (dose: 0.12 mg/kg/injection, schedule: Q01DX001 (ip), vehicle: saline) 159 % of control; (dose: 0.3 mg/kg/injection, schedule: Q01DX009 (ip), vehicle: saline) 163 % of control; (dose: 0.5 mg/kg/injection, schedule: Q01DX001 (ip), vehicle: saline) 313 % of control; (dose: 0.6 mg/kg/injection, schedule: Q01DX009 (ip), vehicle: saline) 221 % of control; (dose: 1.0 mg/kg/injection, schedule: Q01DX001 (ip), vehicle: saline) 120 % of control. For the same compound, the T/C reads like this: (dose: 1.1 mg/kg/injection, schedule: Q01DX009 (ip), vehicle: saline) 210 % of control; (dose: 2.2 mg/kg/injection, schedule: Q01DX001 (ip), vehicle: saline) 198 % of control; (dose: 2.5 mg/kg/injection, schedule: Q01DX001 (ip), vehicle: saline) 163 % of control; (dose: 3.3 mg/kg/injection, schedule: Q01DX001 (ip), vehicle: saline) 153 % of control; (dose: 5.0 mg/kg/injection, schedule: Q01DX001 (ip), vehicle: saline) 157 % of control and 236 % of control; (dose: 1.0 micrograms/kg/injection, schedule: Q01DX009 (ip), vehicle: saline) 104 % of control. Also, the T/C (dose: 8.0 micrograms/kg/injection, schedule: Q01DX009 (ip), vehicle: saline) is 189 % of control.

As for `CC(C)CC1NC(C)(C)CO1` (centres undefined), the T/C was 102 % of control (dose: 75.0 mg/kg/injection, schedule: Q01DX001 (ip), vehicle: carboxymethylcellulose (CMC)); 95 % of control (dose: 150.0 mg/kg/injection, schedule: Q01DX001 (ip), vehicle: carboxymethylcellulose (CMC)); 100 % of control (dose: 300.0 mg/kg/injection, schedule: Q01DX001 (ip), vehicle: carboxymethylcellulose (CMC)).

Consider `COc1cccc2c1C(=O)c1c(O)c3c(c(O)c1C2=O)C[C@@](O)(/C(C)=N\O)C[C@@H]3OC1CC(N)C(O)C(C)O1` (some centres undefined), for which the T/C is 106 % of control (dose: 1.0 mg/kg/injection, schedule: Q04DX003 (ip), vehicle: water); 115 % of control (dose: 2.0 mg/kg/injection, schedule: Q04DX003 (ip), vehicle: water); 113 % of control (dose: 4.0 mg/kg/injection, schedule: Q04DX003 (ip), vehicle: water).

With `CCOc1ccc2c(c1)C(C)=CC(C)(C)N2`, the T/C is 93 % of control under setting [1], 101 % of control under setting [2] and 121 % of control under setting [3].

Turning to `Cc1ccc(C)n1-c1ccccc1C(=O)O`, the T/C is 95 % of control (dose: 100.0 mg/kg/injection, schedule: Q01DX009 (ip), vehicle: Klucel (hydroxypropylcellulose) (HPC)); 93 % of control under setting [1]; 107 % of control (dose: 200.0 mg/kg/injection, schedule: Q01DX009 (ip), vehicle: Klucel (hydroxypropylcellulose) (HPC)); 106 % of control under setting [2]; 101 % of control (dose: 400.0 mg/kg/injection, schedule: Q01DX009 (ip), vehicle: Klucel (hydroxypropylcellulose) (HPC)); 101 % of control under setting [3].
